Data as given in patent publication US20230167073A1 (Teijin Pharma Limited, priority 2020, published 2023).

These molecules were tested against T1, Human TRPC6 (Homo sapiens, UniProt Q9Y210) (assay: Evaluation of TRPC6 channel inhibitory activity (1), FLIPR Calcium 5 Assay Kit, OAG stimulation (Compound Nos. 1-1293)). Conditions: Human TRPC6 stably-expressing cells, OAG 30 μM, FLIPR Calcium 5 Assay Kit; read-out: Inhibitory activity (pIC50 class) (converted).
T1 construct: expressed in transfected cells
T1 sequence (Q9Y210 1-931): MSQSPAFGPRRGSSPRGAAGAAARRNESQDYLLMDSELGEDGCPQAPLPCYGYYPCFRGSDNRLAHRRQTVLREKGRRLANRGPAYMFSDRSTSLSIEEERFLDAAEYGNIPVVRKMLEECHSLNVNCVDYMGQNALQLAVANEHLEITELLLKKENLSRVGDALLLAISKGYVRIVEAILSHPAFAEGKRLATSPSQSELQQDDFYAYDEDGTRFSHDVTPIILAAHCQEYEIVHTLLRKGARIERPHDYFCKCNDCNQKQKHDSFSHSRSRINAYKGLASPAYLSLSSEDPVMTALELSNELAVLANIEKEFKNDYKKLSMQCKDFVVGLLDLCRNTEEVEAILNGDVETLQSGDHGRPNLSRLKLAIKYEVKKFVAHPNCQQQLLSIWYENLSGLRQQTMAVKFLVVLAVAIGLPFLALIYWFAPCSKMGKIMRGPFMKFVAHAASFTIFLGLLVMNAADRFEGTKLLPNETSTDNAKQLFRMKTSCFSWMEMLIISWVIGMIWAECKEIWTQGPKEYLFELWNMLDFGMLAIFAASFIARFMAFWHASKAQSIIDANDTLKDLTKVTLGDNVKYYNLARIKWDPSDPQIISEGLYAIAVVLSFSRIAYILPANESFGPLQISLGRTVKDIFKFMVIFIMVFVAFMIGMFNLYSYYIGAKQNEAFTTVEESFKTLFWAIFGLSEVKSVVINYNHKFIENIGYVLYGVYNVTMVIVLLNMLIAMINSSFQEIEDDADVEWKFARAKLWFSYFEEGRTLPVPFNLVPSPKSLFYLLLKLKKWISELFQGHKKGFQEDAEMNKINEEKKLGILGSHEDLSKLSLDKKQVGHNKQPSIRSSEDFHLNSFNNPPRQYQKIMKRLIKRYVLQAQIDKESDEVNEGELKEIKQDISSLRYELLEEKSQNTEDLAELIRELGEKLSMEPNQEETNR
Assay type: cell-based
Outline: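 Cells stably expressing human TRPC6, plated 24 h before, were loaded 30 min with Calcium 5 dye plus probenecid in HEPES-HBSS. Compound was added 20 min before OAG (30 μM final) and fluorescence tracked on FLIPR. Inhibition normalised to no-compound and no-compound/no-OAG wells; pIC50 from four-parameter fit, reported as +/++/+++ categories.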

| SMILES | IC50 |
| --- | --- |
| Cn1nc(-c2ccccc2)cc1Oc1cc(C#N)ccc1-c1cnc(CCN)nc1 [compound 346, 4-[2-(2-aminoethyl)pyrimidin-5-yl]-3 (2-methyl-5-phenylpyrazol-3-yl)oxybenzonitrile] | < 10 nM |
| Cn1nc(C2CC2)cc1Oc1cc(C#N)ccc1-c1cnc(CCN)nc1 [compound 347, 4-[2-(2-aminoethyl)pyrimidin-5-yl]-3-(5-cyclopropyl-2-methylpyrazol-3 yl)oxybenzonitrile] | > 1000 nM |
| Cn1nc(C2CC2)cc1Oc1cc(C#N)ccc1-c1ccc(OCCN)cn1 [compound 348, 4-[5-(2-aminoethoxy)pyridin-2-yl]-3-(5-cyclopropyl-2-methylpyrazol-3-yl)oxybenzonitrile] | < 10 nM |
| Cc1cc(Oc2cc(C#N)ccc2-c2ccc(OCCN)cn2)n(C)n1 [compound 349, 4-[5-(2-aminoethoxy)pyridin-2-yl]-3-(2,5-dimethylpyrazol-3-yl)oxybenzonitrile] | > 1000 nM |
| Cc1cc(Oc2cc(C#N)ccc2-c2ccc(OCCN)cn2)cc(N2CCOCC2)n1 [compound 350, 4-[5-(2-aminoethoxy)pyridin-2-yl]-3-(2-methyl-6-morpholin-4-ylpyridin-4-yl)oxybenzonitrile] | 10 to 1000 nM |
| Cc1nc(Oc2cc(C#N)ccc2-n2cc([C@@H](O)CN)cn2)cc(-c2ccccc2C(F)(F)F)n1 [compound 351, 4-[4-[(1R)-2-amino-1-hydroxyethyl]pyrazol-1-yl]-3-[2-methyl-6-[2-(trifluoromethyl)phenyl]pyrimidin-4-yl]oxybenzonitrile] | 10 to 1000 nM |
| Cc1nc(Oc2cc(C#N)ccc2-n2cc([C@@H](O)CN)cn2)cc(-c2ccccn2)n1 [compound 352, 4-[4-[(1R)-2-amino-1-hydroxyethyl]pyrazol-1-yl]-3-(2-methyl-6-pyridin-2-ylpyrimidin-4-yl)oxybenzonitrile] | 10 to 1000 nM |
| Cc1nc(Oc2cc(C#N)ccc2-n2cc([C@@H](O)CN)cn2)cc(-c2cccc(C(F)(F)F)c2)n1 [compound 353, 4-[4-[(1R)-2-amino-1-hydroxyethyl]pyrazol-1-yl]-3-[2-methyl-6-[3-(trifluoromethyl)phenyl]pyrimidin-4-yl]oxybenzonitrile] | 10 to 1000 nM |
| Cc1nc(Oc2cc(C#N)ccc2-n2cc([C@H](O)CN)cn2)cc(-c2ccccc2C)n1 [compound 354, 4-[4-[(1S)-2-amino-1-hydroxyethyl]pyrazol-1-yl]-3-[2-methyl-6-(2-methylphenyl)pyrimidin-4-yl]oxybenzonitrile] | 10 to 1000 nM |
| Cc1nc(Oc2cc(C#N)ccc2-n2cc([C@H](O)CN)cn2)cc(-c2ccccc2C(F)(F)F)n1 [compound 355, 4-[4-[(1S)-2-amino-1-hydroxyethyl]pyrazol-1-yl]-3-[2-methyl-6-[2-(trifluoromethyl)phenyl]pyrimidin-4-yl]oxybenzonitrile] | > 1000 nM |
| Cc1nc(Oc2cc(C#N)ccc2-n2cc([C@H](O)CN)cn2)cc(-c2ccccn2)n1 [compound 356, 4-[4-[(1S)-2-amino-1-hydroxyethyl]pyrazol-1-yl]-3-(2-methyl-6-pyridin-2-ylpyrimidin-4-yl)oxybenzonitrile] | 10 to 1000 nM |
| Cc1nc(Oc2cc(C#N)ccc2-n2cc([C@H](O)CN)cn2)cc(-c2cccc(C(F)(F)F)c2)n1 [compound 357, 4-[4-[(1S)-2-amino-1-hydroxyethyl]pyrazol-1-yl]-3-[2-methyl-6-[3-(trifluoromethyl)phenyl]pyrimidin-4-yl]oxybenzonitrile] | 10 to 1000 nM |
| Cc1nc(Oc2cc(C#N)ccc2-n2cc([C@@H](O)CN)cn2)cc(-c2ccccc2C)n1 [compound 358, 4-[4-[(1R)-2-amino-1-hydroxyethyl]pyrazol-1-yl]-3-[2-methyl-6-(2-methylphenyl)pyrimidin-4-yl]oxybenzonitrile] | 10 to 1000 nM |
| Cn1nc(C2CC2)c(F)c1Oc1cc(C#N)ccc1-c1ncc(CCN)cn1 [compound 359, 4-[5-(2-aminoethyl)pyrimidin-2-yl]-3-(5-cyclopropyl-4-fluoro-2-methylpyrazol-3-yl)oxybenzonitrile] | 10 to 1000 nM |
| Cn1nc(-c2ccccc2)c(F)c1Oc1cc(C#N)ccc1-c1ncc(CCN)cn1 [compound 360, 4-[5-(2-aminoethyl)pyrimidin-2-yl]-3-(4-fluoro-2-methyl-5-phenylpyrazol-3-yl)oxybenzonitrile] | < 10 nM |
| CCCc1cc(Oc2cc(C#N)ccc2-c2ccc(CN)cn2)n(C)n1 [compound 361, 4-[5-(aminomethyl)pyridin-2-yl]-3-(2-methyl-5-propylpyrazol-3-yl)oxybenzonitrile] | < 10 nM |
| CC(C)c1cc(Oc2cc(C#N)ccc2-c2ccc(CN)cn2)n(C)n1 [compound 362, 4-[5-(aminomethyl)pyridin-2-yl]-3-(2-methyl-5-propan-2-ylpyrazol-3-yl)oxybenzonitrile] | < 10 nM |
| CCCc1cc(Oc2cc(C#N)ccc2-c2ncc(CN)cn2)n(C)n1 [compound 363, 4-[5-(aminomethyl)pyrimidin-2-yl]-3-(2-methyl-5-propylpyrazol-3-yl)oxybenzonitrile] | < 10 nM |
| CC(C)c1cc(Oc2cc(C#N)ccc2-c2ncc(CN)cn2)n(C)n1 [compound 364, 4-[5-(aminomethyl)pyrimidin-2-yl]-3-(2-methyl-5-propan-2-ylpyrazol-3-yl)oxybenzonitrile] | < 10 nM |
| Cn1nc(-c2ccccc2)cc1Oc1cc(C#N)ccc1-c1ccc([C@@H](O)CN)cn1 [compound 365, 4-[5-[(1R)-2-amino-1-hydroxyethyl]pyridin-2-yl]-3-(2-methyl-5-phenylpyrazol-3-yl)oxybenzonitrile] | < 10 nM |
| Cn1nc(-c2ccccc2)cc1Oc1cc(C#N)ccc1-c1ccc([C@H](O)CN)cn1 [compound 366, 4-[5-[(1S)-2-amino-1-hydroxyethyl]pyridin-2-yl]-3-(2-methyl-5-phenylpyrazol-3-yl)oxybenzonitrile] | < 10 nM |
| Cn1nc(C(C)(C)C)cc1Oc1cc(C#N)ccc1-c1ncc(CCN)cn1 [compound 367, 4-[5-(2-aminoethyl)pyrimidin-2-yl]-3-(5-tert-butyl-2-methylpyrazol-3-yl)oxybenzonitrile] | < 10 nM |
| CC(C)(C)n1nc(C2CC2)cc1Oc1cc(C#N)ccc1-c1ccc(C(O)CN)cn1 (stereo not drawn) [compound 368, 4-[5-(2-amino-1-hydroxyethyl)pyridin-2-yl]-3-(2-tert-butyl-5-cyclopropylpyrazol-3-yl)oxybenzonitrile] | 10 to 1000 nM |
| CC(C)(C)n1nc(C2CC2)cc1Oc1cc(C#N)ccc1-c1ncc(CCN)cn1 [compound 369, 4-[5-(2-aminoethyl)pyrimidin-2-yl]-3-(2-tert-butyl-5-cyclopropylpyrazol-3-yl)oxybenzonitrile] | 10 to 1000 nM |
| N#Cc1ccc(-c2ccc(C(O)CN)cn2)c(Oc2cc(C3CC3)nn2CC(F)(F)F)c1 (stereo not drawn) [compound 370, 4-[5-(2-amino-1-hydroxyethyl)pyridin-2-yl]-3-[5-cyclopropyl-2-(2,2,2-trifluoroethyl)pyrazol-3-yl]oxybenzonitrile] | < 10 nM |
| Cc1cc(Oc2cc(C#N)ccc2-c2ncc(CCN)cn2)cc(-c2ccccn2)n1 [compound 371, 4-[5-(2-aminoethyl)pyrimidin-2-yl]-3-(2-methyl-6-pyridin-2-ylpyridin-4-yl)oxybenzonitrile] | < 10 nM |
| Cn1nc(C2CC2)cc1Oc1cc(C#N)ccc1-c1ncc([C@@H](O)CN)cn1 [compound 372, 4-[5-[(1R)-2-amino-1-hydroxyethyl]pyrimidin-2-yl]-3-(5-cyclopropyl-2-methylpyrazol-3-yl)oxybenzonitrile] | < 10 nM |
| Cn1nc(C2CC2)cc1Oc1cc(C#N)ccc1-c1ncc([C@H](O)CN)cn1 [compound 373, 4-[5-[(1S)-2-amino-1-hydroxyethyl]pyrimidin-2-yl]-3-(5 cyclopropyl-2-methylpyrazol-3-yl)oxybenzonitrile] | < 10 nM |
| Cn1nc(C2CC2)cc1Oc1cc(C#N)ccc1-c1ccc([C@@H](O)CN)cn1 [compound 374, 4-[5-[(1R)-2-amino-1-hydroxyethyl]pyridin-2-yl]-3-(5-cyclopropyl-2-methylpyrazol-3-yl)oxybenzonitrile] | < 10 nM |
| Cn1nc(C2CC2)cc1Oc1cc(C#N)ccc1-c1ccc([C@H](O)CN)cn1 [compound 375, 4-[5-[(1S)-2-amino-1-hydroxyethyl]pyridin-2-yl]-3-(5-cyclopropyl-2-methylpyrazol-3-yl)oxybenzonitrile] | < 10 nM |
